# Reference: US20160220569A1, “CDK4/6 Inhibitor Dosage Formulations For The Protection Of Hematopoietic Stem And Progenitor Cells During Chemotherapy” (G1 Therapeutics, Inc., priority 2015, published 2016)
# Where two headings read alike, the source gives them in different places.
# Assay: 14-day oral gavage toxicokinetic study in rats
# Type: in vivo
# Conditions: male, rat, plasma, po; for concentration at 0.5 h / concentration at 1 h / concentration at 4 h / concentration at 8 h / concentration at 12 h / concentration at 24 h / concentration at […] / concentration at 2 h: rats; for half-life: read-out: t½ (converted)
# Procedure: Plasma was obtained from blood samples collected from rats in a composite sampling scheme, with 3 samples collected per sex, per dose, at each target collection time, as illustrated in Table 21 to Table 25. Samples were collected from the vehicle control group on Day 1 and Day 14 at 3 hour after administration. […] Blood samples were collected in tubes containing K3EDTA as an anticoagulant and placed on ice until processed to plasma via centrifugation. Samples were stored frozen at −80° C. until shipment to the bioanalytical laboratory for analysis.
# The following parameters were determined:
# Cmax: Maximum observed plasma concentration (ng/mL).
# A value of 0 ng/mL was assigned to all values below the lower limit of quantitation (BLQ, <10.0 ng/mL).
# AUC(0-inf): Area under the plasma concentration vs. time curve extrapolated from 0 to infinity (ng*h/mL), calculated as AUC(0-t)+AUC(t-inf) where AUC(t-inf) is calculated as last measurable concentration (CLast) divided by ke, where ke is the elimination rate constant determined by linear regression of the last three analytically measured points on the log plasma concentration vs. time curve. The selection criteria of the data points for inclusion in the calculation of ke required that at least three data points representing the terminal phase (after Tmax) were regressed and that R2≧0.850 when rounded.
# CL: Clearance (L/h/kg), calculated as the dose divided by AUC(0-t).
# Vd: Volume of distribution (L/kg), calculated as dose divided by the product of ke and AUC(0-inf).
# Vdss: Steady state volume of distribution (L/kg), calculated as clearance […] mean residence time, where mean residence time is calculated as the area under the first moment curve divided by AUC(0-t).
# t½: Elimination half-life (h), calculated as ln(2)/ke, where ke is the elimination rate constant determined by linear regression. Half-life was defined as not determined if regression criteria (specified in AUC(0-inf) above) were not met.
# Cmax/Dose: Normalized Cmax, calculated as Cmax divided by total dose.
# AUC/Dose: Normalized AUC, calculated as AUC(0-t) divided by total dose.
# ii. Statistical Analysis Mean and standard deviation (SD) were calculated in Watson. Values of BLQ were assigned a value of 0 ng/mL for mean calculations. Concentration values and derived TK parameters were reported to three significant figures.
# [1] = 5 mg/kg, oral 5 mg/kg, Study Day 1, Male
# [2] = 5 mg/kg, oral 5 mg/kg, Study Day 14, Male
structure (smiles),measurement,setting,value
"CN1CCN(c2ccc(Nc3ncc4cc5n(c4n3)C3(CCCCC3)CNC5=O)nc2)CC1 [Compound 1, 2′-((5-(4-methylpiperazin-1-yl)pyridin-2-yl)amino)-7′,8′-dihydro-6′H-spiro[cyclohexane-1,9′-pyrazino[1′,2′:1,5]pyrrolo[2,3-d]pyrimidin]-6′-one]",concentration at 0.5 h,"5 mg/kg, Individual Compound 1 Plasma Concentration, daily oral 5 mg/kg, Day 1, Male, 0.5 h",225 ng/mL
same,concentration at 1 h,"5 mg/kg, Individual Compound 1 Plasma Concentration, daily oral 5 mg/kg, Day 1, Male, 1 h",244 ng/mL
same,concentration at 4 h,"5 mg/kg, Individual Compound 1 Plasma Concentration, daily oral 5 mg/kg, Day 1, Male, 4 h",562 ng/mL
same,concentration at 8 h,"5 mg/kg, Individual Compound 1 Plasma Concentration, daily oral 5 mg/kg, Day 1, Male, 8 h",235 ng/mL
same,concentration at 12 h,"5 mg/kg, Individual Compound 1 Plasma Concentration, daily oral 5 mg/kg, Day 1, Male, 12 h",206 ng/mL
same,concentration at 24 h,"5 mg/kg, Individual Compound 1 Plasma Concentration, daily oral 5 mg/kg, Day 1, Male, 24 h",26.5 ng/mL
same,concentration at 0.5 h,"5 mg/kg, Individual Compound 1 Plasma Concentration, daily oral 5 mg/kg, Day 14, Male, 0.5 h",205 ng/mL
same,concentration at 1 h,"5 mg/kg, Individual Compound 1 Plasma Concentration, daily oral 5 mg/kg, Day 14, Male, 1 h",254 ng/mL
same,concentration at 4 h,"5 mg/kg, Individual Compound 1 Plasma Concentration, daily oral 5 mg/kg, Day 14, Male, 4 h",512 ng/mL
same,concentration at 12 h,"5 mg/kg, Individual Compound 1 Plasma Concentration, daily oral 5 mg/kg, Day 14, Male, 12 h",169 ng/mL
same,concentration at 24 h,"5 mg/kg, Individual Compound 1 Plasma Concentration, daily oral 5 mg/kg, Day 14, Male, 24 h",11.1 ng/mL
same,concentration at […],"5 mg/kg, Individual Compound 1 Plasma Concentration, daily oral 5 mg/kg, Day 14, Male, […]",26 ng/mL
same,concentration at 0.5 h,"5 mg/kg, Mean Compound 1 Plasma Concentration, oral 5 mg/kg, Day 1, 0.5 h, Male",237 ng/mL
same,concentration at 1 h,"5 mg/kg, Mean Compound 1 Plasma Concentration, oral 5 mg/kg, Day 1, 1 h, Male",194 ng/mL
same,concentration at 2 h,"5 mg/kg, Mean Compound 1 Plasma Concentration, oral 5 mg/kg, Day 1, 2 h, Male",254 ng/mL
same,concentration at 4 h,"5 mg/kg, Mean Compound 1 Plasma Concentration, oral 5 mg/kg, Day 1, 4 h, Male",408 ng/mL
same,concentration at 8 h,"5 mg/kg, Mean Compound 1 Plasma Concentration, oral 5 mg/kg, Day 1, 8 h, Male",276 ng/mL
same,concentration at 12 h,"5 mg/kg, Mean Compound 1 Plasma Concentration, oral 5 mg/kg, Day 1, 12 h, Male",195 ng/mL
same,concentration at 24 h,"5 mg/kg, Mean Compound 1 Plasma Concentration, oral 5 mg/kg, Day 1, 24 h, Male",25.6 ng/mL
same,concentration at […],"5 mg/kg, Mean Compound 1 Plasma Concentration, oral 5 mg/kg, Day 1, […], Male",16 ng/mL
same,concentration at 0.5 h,"5 mg/kg, Mean Compound 1 Plasma Concentration, oral 5 mg/kg, Day 14, 0.5 h, Male",298 ng/mL
same,concentration at 1 h,"5 mg/kg, Mean Compound 1 Plasma Concentration, oral 5 mg/kg, Day 14, 1 h, Male",258 ng/mL
same,concentration at 2 h,"5 mg/kg, Mean Compound 1 Plasma Concentration, oral 5 mg/kg, Day 14, 2 h, Male",436 ng/mL
same,concentration at 4 h,"5 mg/kg, Mean Compound 1 Plasma Concentration, oral 5 mg/kg, Day 14, 4 h, Male",421 ng/mL
same,concentration at 8 h,"5 mg/kg, Mean Compound 1 Plasma Concentration, oral 5 mg/kg, Day 14, 8 h, Male",273 ng/mL
same,concentration at 12 h,"5 mg/kg, Mean Compound 1 Plasma Concentration, oral 5 mg/kg, Day 14, 12 h, Male",198 ng/mL
same,concentration at 24 h,"5 mg/kg, Mean Compound 1 Plasma Concentration, oral 5 mg/kg, Day 14, 24 h, Male",16.2 ng/mL
same,concentration at […],"5 mg/kg, Mean Compound 1 Plasma Concentration, oral 5 mg/kg, Day 14, […], Male",27.2 ng/mL
same,AUC(0-inf),[1],4850 ng·h/mL
same,AUC(0-t),[1],4680 ng·h/mL
same,Cmax,[1],408 ng/mL
same,Tmax,[1],4 h
same,half-life,[1],4.52 h
same,AUC(0-inf),[2],5120 ng·h/mL
same,AUC(0-t),[2],5030 ng·h/mL
same,Cmax,[2],436 ng/mL
same,Tmax,[2],2 h
same,half-life,[2],3.77 h
same,concentration at 1 h,"15 mg/kg, Individual Compound 1 Plasma Concentration, daily oral 15 mg/kg, Day 1, Male, 1 h",614 ng/mL
same,concentration at 2 h,"15 mg/kg, Individual Compound 1 Plasma Concentration, daily oral 15 mg/kg, Day 1, Male, 2 h",759 ng/mL
same,concentration at 4 h,"15 mg/kg, Individual Compound 1 Plasma Concentration, daily oral 15 mg/kg, Day 1, Male, 4 h",1160 ng/mL
same,concentration at 8 h,"15 mg/kg, Individual Compound 1 Plasma Concentration, daily oral 15 mg/kg, Day 1, Male, 8 h",696 ng/mL
same,concentration at 12 h,"15 mg/kg, Individual Compound 1 Plasma Concentration, daily oral 15 mg/kg, Day 1, Male, 12 h",451 ng/mL
same,concentration at […],"15 mg/kg, Individual Compound 1 Plasma Concentration, daily oral 15 mg/kg, Day 1, Male, […]",49.7 ng/mL
same,concentration at 0.5 h,"15 mg/kg, Individual Compound 1 Plasma Concentration, daily oral 15 mg/kg, Day 14, Male, 0.5 h",741 ng/mL
same,concentration at 1 h,"15 mg/kg, Individual Compound 1 Plasma Concentration, daily oral 15 mg/kg, Day 14, Male, 1 h",1020 ng/mL
same,concentration at 2 h,"15 mg/kg, Individual Compound 1 Plasma Concentration, daily oral 15 mg/kg, Day 14, Male, 2 h",1350 ng/mL
same,concentration at 4 h,"15 mg/kg, Individual Compound 1 Plasma Concentration, daily oral 15 mg/kg, Day 14, Male, 4 h",1160 ng/mL
same,concentration at 8 h,"15 mg/kg, Individual Compound 1 Plasma Concentration, daily oral 15 mg/kg, Day 14, Male, 8 h",1190 ng/mL
same,concentration at 12 h,"15 mg/kg, Individual Compound 1 Plasma Concentration, daily oral 15 mg/kg, Day 14, Male, 12 h",583 ng/mL
same,concentration at 24 h,"15 mg/kg, Individual Compound 1 Plasma Concentration, daily oral 15 mg/kg, Day 14, Male, 24 h",61.4 ng/mL
same,concentration at […],"15 mg/kg, Individual Compound 1 Plasma Concentration, daily oral 15 mg/kg, Day 14, Male, […]",89.9 ng/mL
same,concentration at 0.5 h,"15 mg/kg, Mean Compound 1 Plasma Concentration, oral 15 mg/kg, Day 1, 0.5 h, Male",620 ng/mL
same,concentration at 1 h,"15 mg/kg, Mean Compound 1 Plasma Concentration, oral 15 mg/kg, Day 1, 1 h, Male",810 ng/mL
same,concentration at 2 h,"15 mg/kg, Mean Compound 1 Plasma Concentration, oral 15 mg/kg, Day 1, 2 h, Male",1060 ng/mL
